Earlier results as cited in article PMC11258486, “Phase 1 dose escalation study of the MDM2 inhibitor milademetan as monotherapy and in combination with azacitidine in patients with myeloid malignancies” (Cancer Medicine, 2024).

How the values were obtained:
[1] = tested on: AML; design: method as in PMID 26459177; conditions: phase 1 clinical study in AML; cited from earlier work
[2] = tested on: relapsed/refractory AML; design: method as in PMID 35413116; conditions: relapsed/refractory AML and wild‐type p53; cited from earlier work

Row | SMILES | response rate [1] | overall response rate [2] [%]
1 | CCOc1cc(C(C)(C)C)ccc1C1=N[C@@](C)(c2ccc(Cl)cc2)[C@@](C)(c2ccc(Cl)cc2)N1C(=O)N1CCN(CCCS(C)(=O)=O)CC1 [RG7112] | ~ 25% | –
2 | Nc1ccn([C@@H]2O[C@H](CO)[C@@H](O)[C@@H]2O)c(=O)n1 [cytarabine] | – | 22
